US9744186B2 (priority 2012, dated 2017)

Assays:
[1] = Stability test of HPLC-purified gemcitabine analogs at different pH conditions; assay type: physicochemical; details: 200 μM
Protocol: The solution was then incubated for 4 hours at 40° C. [table] HPLC analysis: 100 μl of the incubated solution was loaded onto the Vydac C18 analytical column 4.6/250 at 1 ml/min water with the following procedures: a. Inject 100 μl the incubated solution; b. Water for 5 minutes at 1 ml/min; c. 0-100% methanol over 30 minutes; d. Back to 20% methanol. Analysis: The standard HPLC analysis software was used to quantitate the area under each peak. Degradation peaks are quantitated as a percentage of the peak of the same amount of control sample (no heat treatment).

[2] = TC50 MTS assay with human cancer cell lines: HEK293; assay type: cell-based; details: HEK293 cells, 96 h drug treatment
Protocol: (§1) Plating Cells: The Huh7, HEPG2, HEK293, MCF-7, PK9, RPK9, or BxPC3 cells were passaged when they were about 70% confluent. The cells were counted using a hemocytometer, and then diluted cells to 0.5×10^5 cells per mL in DMEM+10% FBS. 100 µL of the cells (5,000 cells) were plated per well in a clear 96-well plate. The cells were allowed to attach for 24 hours at 37° C.
(§2) Treating the cells: Pre-warm the DMEM media without phenol red+2% FBS media to 37° C. […] This will bring the final DMSO concentration to 0.5%. Use these 0.5 mM dilutions to further serially the drugs in DMEM without phenol red+2% FBS+0.5% DMSO. This will keep the concentration of DMSO in each condition identical. Remove the 96-well plate from the 37° C. incubator. Replace the media on the plate with the dilutions of the drugs. Stagger these treatments by 1 h and write the treatment time on each set of plates. Return to 37° C. for 48 h or 96 h as indicated.
(§3) MTS Assay: The reagents from CellTiter 96 kit (Promega Corporation, Madison, Wis.) were thawed at room temperature in the dark for 1 h. The 96-well plate was removed from the 37° C. incubator at 48 h after drug treatment. 20 μL of the combined MTS/PMS reagent to each well of the plate, mixed, and the plate returned to 37° C. The absorbance of each well at 490 nm and 650 nm was determined using the Flexstation 3 microplate reader in endpoint mode every hour for 3 h. The solutions in the wells were mixed prior to each reading. Fit Data to the Emax model: y=(Emax*x)/(TC50+x), where Emax is the maximum inhibition and TC50 is the inhibitory dose 50%. Alternatively, fit the data to the Emax sigmoidal model: y=(Emax*x^slope)/(TC50^slope+x^slope), where slope is the Hill Slope.
(§4) Each TC50 was the average value of three measurements as described herein. […] The RPK9 cells are deficient in deoxycytidine kinase (“dCK”) activity, an enzyme required for the initial phosphorylation of dFdC to dFdCMP (see FIG. 2).

[3] = TC50 MTS assay with human cancer cell lines: HEPG2; assay type: cell-based; details: HEPG2 cells, 96 h drug treatment
Protocol: as §1, §2, §3, §4

[4] = TC50 MTS assay with human cancer cell lines: MCF-7; assay type: cell-based; details: MCF-7 cells, 96 h drug treatment
Protocol: as §1, §2, §3, §4

[5] = Compound solubility in media; assay type: physicochemical; details: DMEM+2% FBS cell culture media, 37 °C, plasma or biological fluid, kinetic from dmso stock; DMEM+2% FBS media
Protocol: Treating the cells: Media (DMEM+2% FBS) was pre-warmed to 37° C. […] The 96-well plate was removed from the 37° C. incubator, and the media replaced on the plate with the serial dilutions of the test drug. The plate was then returned to 37° C. for 48 h.

in vitro = test: in vitro
Protocol: Plating Cells: The Huh7 cell line was passaged when it was at about 70% confluency. The cells were counted using a hemocytometer, followed by dilution of the cells to 0.5×10^5 cells per mL in DMEM+10% FBS. The cells were plated at 100 μL (5,000 cells) per well in a clear 96-well plate. The cells were allowed to attach for 24 hours at 37° C.
Treating the cells: The media (DMEM media without phenol red+2% FBS media) was pre-warmed to 37° C. […] This provided a final DMSO concentration of 0.5%. The 100 mM stock of 3,5-dichlorobenzoic acid was diluted in DMEM without phenol red+2% FBS to a concentration of 0.5 mM. The working 0.5 mM diluted test drugs were serially diluted in DMEM without phenol red+2% FBS+0.5% DMSO in order to maintain a constant concentration of DMSO in each condition. The 96-well plate was removed from the 37° C. incubator, and the media on the plate was replaced with media containing diluted test drug.
as §3, with “The data were fit” for “Fit Data”, “Alternatively,” for “Alternatively, fit”, “data can be fit” for “data”

HCV luciferase replicon = test: Reversal of anti-HCV activity by exogenous nucleosides; assay type: cell-based, hepatitis C virus (HCV); details: drug 1000, 100 or 25 nM; 50 μM cytidine or 2′-deoxycitidine; 48 h
Protocol: After 48 hours, the cells were lysed, and the total luciferase activity was determined. […] Where indicated, either 50 μM cytidine (C) or 50 μM 2′-deoxycitidine (dC) was also included.
The cells were plated, incubated with drug, and luciferase activity assayed essentially as described herein above. The incubation with drug was for 48 h.

[6] = Pretreatment (control sample, no heat treatment)

SMILES	% remaining [1, 6]	% remaining ([1]; pH 1, 4 hours at 40° C.)	% remaining ([1]; pH 2, 4 hours at 40° C.)	% remaining ([1]; pH 4, 4 hours at 40° C.)	% remaining ([1]; pH 6, 4 hours at 40° C.)	% remaining ([1]; pH 8, 4 hours at 40° C.)	CC50 at 96 h [2]	CC50 at 96 h [3]	CC50 at 96 h [4]	solubility [5]	CC50 at 48 h (in vitro)	reversal of the inhibition of the HCV luciferase replicon by deoxycytidine and cytidine (HCV luciferase replicon)
COc1cc(C(=O)Nc2ccn([C@@H]3O[C@H](CO)[C@@H](O)C3(F)F)c(=O)n2)cc(OC)c1OC [GTB, N^4-(3,4,5-Trimethoxybenzoyl)gemcitabine]	100%	86%	87%	98.6%	99.5%	82.7%	1280 ± 260 nM	1670 ± 420 nM	566 ± 118 nM	> 500 µM	495000 ± 97000 nM	reversal
O=C(Nc1ccn([C@@H]2O[C@H](CO)[C@@H](O)C2(F)F)c(=O)n1)c1cc(Cl)cc(Cl)c1 [GCB, N^4-(3,5-Dichlorobenzoyl)gemcitabine]	100%	35%	82%	98.4%	99.6%	35.4%	1190 ± 180 nM	633 ± 207 nM	326 ± 88 nM	< 500 µM	110000 ± 36000 nM	reversal
